Laboratory results published in patent US6914045B2, “Glycopeptide antibiotics” (Wyeth Holdings Corporation, priority 2001, dated 2005).

Legend:
[1] = clinical pathology (serum clinical chemistry) in mice; format: in vivo; details: CD-1 mice, 20 mg/kg intravenously daily for 9 days, sera day 10
Protocol: 20-day-old CD-1 mice were divided into a vehicle control group (5 mice) and a treatment group (5 mice). Samples of glycopeptide antibiotics were administered at 20 mg/kg intravenously daily for 9 days.

[2] = test system: Staphylococcus aureus-SMITH (GC 4543); experiment: acute lethal infection in mice; format: in vivo; details: acute lethal infection, female CD-1 mice, intraperitoneal challenge, intravenous 30 min. after infection, 7 day survival
Summary of the method: (§1)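 Female CD-1 mice (20±2 g) got an intraperitoneal bacterial challenge lethal to untreated controls within 24–48 hr. Compound was dosed intravenously 30 min after infection, five mice per dose. ED50 was calculated from 7-day survival pooled across 3 tests.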

[3] = test system: Streptococcus pneumoniae (GC 1894); experiment: acute lethal infection in mice; format: in vivo; details: female CD-1 mice, intraperitoneal challenge, intravenous 30 min. after infection, 7 day survival
Summary of the method: as §1

[4] = anatomic pathology (histopathology of heart and kidney) in mice; format: in vivo; details: CD-1 mice, 20 mg/kg intravenously daily for 9 days, necropsy day 10, microscopic histopathology
Protocol: Samples of tissues from necropsied mice were formalin-fixed, paraffin-embedded, sectioned, stained with hematoxylin and eosin, and examined microscopically. Histopathologic findings were recorded. These findings were subjectively graded on a scale corresponding to slight, mild, moderate, marked and severe as compared to untreated controls.

Streptococcus sp. = experiment: in vitro antibacterial evaluation, MIC by broth dilution; format: cell-based; details: broth dilution, 18 hours at 35° C.
Summary of the method: (§2)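 MIC, the lowest antibiotic concentration preventing growth, was read across 64-0.06 μg/mL with 5×10^5 CFU/mL inoculum. Method followed NCCLS M7-A2 broth dilution using Mueller-Hinton II; Gram-positive strains covered recent methicillin-, penicillin- and/or vancomycin-resistant clinical isolates.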

Escherichia coli = experiment: as above; format: cell-based; details: 18 hours at 35° C.
Summary of the method: as §2

Staphylococcus sp. = experiment: as above; format: cell-based; details: broth dilution, 18 hours at 35° C.
Summary of the method: as §2

Enterococcus sp. = experiment: as above; format: cell-based; details: broth dilution, 18 hours at 35° C.
Summary of the method: as §2

CC(c1ccccc1)C1NC(=O)CNC(=O)C(CO)NC(=O)C(C(O)C2CNC(=N)N2C2OC(CO)C(O)C(O)C2O)NC(=O)C(C(O)C2CNC(=N)N2)NC(=O)C(Cc2ccc(OC3OC(CO)C(OC4OC5COC(c6ccccc6)OC5C(O)C4O)C(O)C3O)cc2)NC1=O (centres unmarked) [Example 104, Cyclo[glycyl-3-methylphenylalanyl-O-[4-O-(4,6-O-benzylidenehexopyranosyl)hexopyranosyl]-tyrosyl-3-(2-iminoimidazolidin-4-yl)seryl-3-(3-hexopyranosyl-2-iminoimidazolidin-4-yl)-serylseryl]]
4 µg/mL: MIC Enterococcus faecalis (GC 2691) (Enterococcus sp.; Enterococcus faecalis (GC 2691)) | MIC Enterococcus faecalis (GC 3059) (Enterococcus sp.; Enterococcus faecalis (GC 3059)) | MIC Enterococcus faecalis (GC 4552) (Enterococcus sp.; Enterococcus faecalis (GC 4552)) | MIC Enterococcus faecalis (GC 4553) (Enterococcus sp.; Enterococcus faecalis (GC 4553)) | MIC Enterococcus faecalis (GC 4554) (Enterococcus sp.; Enterococcus faecalis (GC 4554)) | MIC Enterococcus faecalis (GC 2691) (Enterococcus sp.; strain GC 2691) | MIC Enterococcus faecalis (GC 3059) (Enterococcus sp.; strain GC 3059) | MIC Enterococcus faecalis (GC 4552) (Enterococcus sp.; strain GC 4552) | MIC Enterococcus faecalis (GC 4553) (Enterococcus sp.; strain GC 4553) | MIC Enterococcus faecalis (GC 4554) (Enterococcus sp.; strain GC 4554)
<0.12 to 0.25 µg/mL: MIC Streptococcus agalactiae (GC 4564) (Streptococcus sp.; Streptococcus agalactiae (GC 4564)) | MIC Streptococcus agalactiae (GC 4564) (Streptococcus sp.; strain GC 4564)
+203%: Clinical Chemistry (Day 10) % of Control, BUN [1]
2 to 4 µg/mL: MIC Enterococcus avium (GC 4558) (Enterococcus sp.; Enterococcus avium (GC 4558)) | MIC Enterococcus faecalis (ATCC 29212) (Enterococcus sp.; Enterococcus faecalis (ATCC 29212)) | MIC Enterococcus faecium (GC 4556) (Enterococcus sp.; Enterococcus faecium (GC 4556)) | MIC Enterococcus faecalis (ATCC 29212) (Enterococcus sp.; strain ATCC 29212) | MIC Enterococcus faecium (GC 4556) (Enterococcus sp.; strain GC 4556) | MIC Enterococcus avium (GC 4558) (Enterococcus sp.; strain GC 4558)
+65%: Clinical Chemistry (Day 10) % of Control, Creatinine [1]
32 to 64 µg/mL: MIC Escherichia coli (ATCC 25922) (Escherichia coli; strain ATCC 25922)
0.22 mg/kg: median effective dose (ED50), Streptococcus pneumoniae (GC 1894) [3]
0.19 mg/kg: median effective dose (ED50), Staphylococcus aureus-SMITH (GC 4543) [2]
2 µg/mL: MIC Staphylococcus aureus (GC 1131) (Staphylococcus sp.) | MIC Staphylococcus aureus (GC 1131) (Staphylococcus sp.; strain GC 1131) | MIC Enterococcus faecalis (GC 2242) (Enterococcus sp.; Enterococcus faecalis (GC 2242)) | MIC Enterococcus faecalis (GC 6189) (Enterococcus sp.; Enterococcus faecalis (GC 6189)) | MIC Enterococcus faecium (GC 2243) (Enterococcus sp.; Enterococcus faecium (GC 2243)) | MIC Enterococcus faecium (GC 4557) (Enterococcus sp.; Enterococcus faecium (GC 4557)) | MIC Enterococcus faecalis (GC 2242) (Enterococcus sp.; strain GC 2242) | MIC Enterococcus faecium (GC 2243) (Enterococcus sp.; strain GC 2243) | MIC Enterococcus faecium (GC 4557) (Enterococcus sp.; strain GC 4557) | MIC Enterococcus faecalis (GC 6189) (Enterococcus sp.; strain GC 6189)
+++: Anatomical Pathology (Day 10), Heart [4] | Anatomical Pathology (Day 10), Kidney [4]
+87%: Clinical Chemistry (Day 10) % of Control, AST [1]
16 to 32 µg/mL: MIC Escherichia coli (GC 4559) (Escherichia coli; strain GC 4559)
1 µg/mL: MIC Coagulase Negative Staphylococcus (GC 4547) (Staphylococcus sp.) | MIC Coagulase Negative Staphylococcus (GC 4551) (Staphylococcus sp.) | MIC Staphylococcus aureus (ATCC 29213) (Staphylococcus sp.) | MIC Staphylococcus aureus (GC 3051) (Staphylococcus sp.) | MIC Staphylococcus aureus (GC 3053) (Staphylococcus sp.) | MIC Staphylococcus aureus (GC 4541) (Staphylococcus sp.) | MIC Staphylococcus aureus (GC 4544) (Staphylococcus sp.) | MIC Coagulase Negative Staphylococcus (GC 4547) (Staphylococcus sp.; strain GC 4547) | MIC Coagulase Negative Staphylococcus (GC 4551) (Staphylococcus sp.; strain GC 4551) | MIC Staphylococcus aureus (ATCC 29213) (Staphylococcus sp.; strain ATCC 29213) | MIC Staphylococcus aureus (GC 3051) (Staphylococcus sp.; strain GC 3051) | MIC Staphylococcus aureus (GC 3053) (Staphylococcus sp.; strain GC 3053) | MIC Staphylococcus aureus (GC 4541) (Staphylococcus sp.; strain GC 4541) | MIC Staphylococcus aureus (GC 4544) (Staphylococcus sp.; strain GC 4544)
0.5 µg/mL: MIC Coagulase Negative Staphylococcus (GC 4549) (Staphylococcus sp.) | MIC Coagulase Negative Staphylococcus (GC 6257) (Staphylococcus sp.) | MIC Staphylococcus aureus (GC 4542) (Staphylococcus sp.) | MIC Staphylococcus haemolyticus (GC 4546) (Staphylococcus sp.) | MIC Staphylococcus haemolyticus (GC 4546) (Staphylococcus sp.; strain GC 4546) | MIC Coagulase Negative Staphylococcus (GC 4549) (Staphylococcus sp.; strain GC 4549) | MIC Coagulase Negative Staphylococcus (GC 6257) (Staphylococcus sp.; strain GC 6257) | MIC Staphylococcus aureus (GC 4542) (Staphylococcus sp.; strain GC 4542)
0.5 to 1 µg/mL: MIC Escherichia coli (GC 4560) (Escherichia coli; strain GC 4560) | MIC Coagulase Negative Staphylococcus (GC 4548) (Staphylococcus sp.) | MIC Staphylococcus aureus (GC 4545) (Staphylococcus sp.) | MIC Staphylococcus aureus-SMITH (GC 4543) (Staphylococcus sp.) | MIC Coagulase Negative Staphylococcus (GC 4548) (Staphylococcus sp.; strain GC 4548) | MIC Staphylococcus aureus-SMITH (GC 4543) (Staphylococcus sp.; strain SMITH GC 4543) | MIC Staphylococcus aureus (GC 4545) (Staphylococcus sp.; strain GC 4545)
<0.12 µg/mL: MIC Streptococcus pneumoniae (ATCC 6301) (Streptococcus sp.; Streptococcus pneumoniae (ATCC 6301)) | MIC Streptococcus pneumoniae (GC 1894) (Streptococcus sp.; Streptococcus pneumoniae (GC 1894)) | MIC Streptococcus pneumoniae (GC 4565) (Streptococcus sp.; Streptococcus pneumoniae (GC 4565)) | MIC Streptococcus pyogenes (GC 4563) (Streptococcus sp.; Streptococcus pyogenes (GC 4563)) | MIC Streptococcus pneumoniae (ATCC 6301) (Streptococcus sp.; strain ATCC 6301) | MIC Streptococcus pneumoniae (GC 1894) (Streptococcus sp.; strain GC 1894) | MIC Streptococcus pyogenes (GC 4563) (Streptococcus sp.; strain GC 4563) | MIC Streptococcus pneumoniae (GC 4565) (Streptococcus sp.; strain GC 4565)
